Assay results reported in US6818782B2, “Enantiomeric compounds for treatment of cardiac arrhythmias and methods of use” (ARYX Therapeutics, priority 1999, dated 2004).

Assays:
[1] = tested on: rats challenged by an arrhythmogenic combination of benzene vapors and adrenaline; test: Anti-arrhythmic activity in anesthetized rats (benzene/adrenaline challenge: VPB and tachycardia); format: in vivo, rat; details: for Protection against adrenaline-induced tachycardia (heart rate), potency and duration: administered from time 0 to time 120 minutes; for Heart rate (beats/minute) / Inhibition of tachycardia / Number of VPB / Inhibition of VPB: isolated enantiomer compared to respective racemate; for Inhibition of VPB: 4 mg/kg i.v. then 12 mg/kg/h for 2 hours; for Anti-VPB activity at the end of the washout period: time 180 min; for Inhibition of formation of ventricular premature beats during drug administration: whole period of drug administration (time 0 to 120 min), 4 mg/kg i.v. then 12 mg/kg/h
Experimental: (§1) Anti-Arrhythmic Activity in Anesthetized Rats
(§2) Male Sprague-Dawley rats with body weights of 410±30 g (Harlan Sprague Dawley Inc., Indianapolis, Ind.), were anesthetized with sodium pentobarbital (50 mg/kg i.p.—Butler Co., Columbus, Ohio). The skin from the neck area was removed and the jugular veins on both sides were cleared of connective tissue. Both jugular veins and the left carotid artery were isolated, and the latter tied up cranially with a surgical silk (ETHICON 4-0, Ethicon Inc., Australia). A plastic catheter ([…] 19ga, Vecton Dickinson, Sandy, Utah), filled with a solution containing 10% sodium heparin (Elkins-Sinn Inc., Cherry Hill, N.J.) in normal saline (100 U/ml sodium heparin), was introduced into the artery and fixed with surgical silk.
(§3) The catheter was connected to a pressure transducer (OHMEDA P23-XL, Ohmeda Medical Devices Division Inc., Madison, Wis.), filled with the same heparinized 0.9% NaCl solution, to register beat-to-beat arterial pressure. Needle electrodes were inserted s.c., and together with the pressure transducer, were joined to a GOULD TA 2000 recorder. Leads II, aVF and intraarterial blood pressure were monitored simultaneously throughout the experiments and recorded at certain intervals at 50 and 200 mm/sec paper speed.
(§4) The surgery was completed with an incision on the trachea where a short plastic tubing was placed and the animal was connected to a rodent-model ventilator (HARVARD Model 683, Harvard Apparatus, Inc., Holliston, Mass.). The animals were ventilated in a controlled way, depending on their spontaneous breathing frequency (55-75/min).
(§5) Drug administrations were carried out through i.v. catheters (TERUMO 24 GA*¾″, Terumo Medical Corp., Elkton, Md.) inserted into both jugular veins. The left side was used for drug infusions by means of a syringe pump (SAGE INSTRUMENTS, Model 341B, Orion Res. Inc., Boston, Mass.), and the right side was used for adrenaline injections. The experiments were started after at least 15 minutes of stabilization. Benzene/adrenaline challenges were performed as follows: the respirator inlet was connected to a 50-ml bubbler half-full with benzene (Fisher Scientific, Fair Lawn, N.J.) so that the inspired air was saturated with benzene vapor. The animal was ventilated with benzene vapor for two minutes. The tidal volume was typically 1 ml/100 g of animal. During the last 30 seconds of benzene ventilation, 10 μg/kg adrenaline solution (in 0.9% NaCl) was injected into the right jugular vein. […] These arrhythmias could be elicited repeatedly. After three control VTs (at −30, −20 and −10 minutes), the test compounds were injected slowly during 30 seconds at a dose of 4 mg/kg i.v., immediately followed by a slow infusion of 12 mg/kg/h for 2 hours. The flow rate during the infusion period was 1 ml/h.
(§6) There were 5 rats per test compound and each animal served as its own control. The ability of the different drugs to suppress arrhythmias was tested against repeated benzene/adrenaline challenges at 5, 15, 30, 45, 60, 90, 120 (end of drug infusion), 135, 150, 165 and 180 minutes after the i.v. bolus injection. The amplitudes of the systolic arterial pressure and diastolic arterial pressure […] with the help of a pressure-amplitude calibration curve. Heart rate, number of ventricular complexes during the occurrence of VTs and VPBs, and certain ECG parameters (PR, QRS, QT durations and RR cycle lengths in msec) were also recorded and measured manually. At each time-point, 3-5 cycles were measured and the average values were entered into EXCEL Windows 97. The average and standard deviation for the five experimental animals per compound were calculated.

anesthetized rats = test: EKG parameters (QT, QRS, PR) in anesthetized rats; format: in vivo, rat; details: for PR interval / QRS interval / QT interval: isolated enantiomer compared to respective racemate
Experimental: as §1, §2, §3, §4, §5, §6

CCN(CC)CCOc1c(I)cc(C(=O)c2c(CC(=O)OC(C)C(C)C)oc3ccccc23)cc1I (stereo not shown) [ATI-2055]
Protection against adrenaline-induced tachycardia (heart rate), potency and duration [1]: inhibits the tachycardia

CC[C@H](C)OC(=O)Cc1oc2ccccc2c1C(=O)c1cc(I)c(OCCN(CC)CC)c(I)c1 [ATI-2042]
Protection against adrenaline-induced tachycardia (heart rate), potency and duration [1]: very good protection against this tachyarrhythmia

CC[C@@H](C)OC(=O)Cc1oc2ccccc2c1C(=O)c1cc(I)c(OCCN(CC)CC)c(I)c1 [Compound R-2042, (R)-sec-Butyl 2-[3-(3,5-diiodo-4-(2-diethylaminoethyloxy)benzoyl)]benzofuraneacetate]
Heart rate (beats/minute) ([1]; anesthetized rats): lower
Inhibition of tachycardia ([1]; anesthetized rats): longer
Number of VPB ([1]; anesthetized rats): lower
Inhibition of VPB ([1]; anesthetized rats): longer
Anti-VPB activity at the end of the washout period [1]: completely inactive
PR interval (anesthetized rats): shorter
QRS interval (anesthetized rats): no change
QT interval (anesthetized rats): no change

CC[C@H](C)OC(=O)Cc1oc2ccccc2c1C(=O)c1cc(I)c(OCCN(CC)CC)c(I)c1 [Compound S-2042, (S)-sec-Butyl 2-[3-(3,5-diiodo-4-(2-diethylaminoethyloxy)benzoyl)]benzofurane-acetate]
Protection against adrenaline-induced tachycardia (heart rate), potency and duration [1]: more potent and longer acting then R-2042
Heart rate (beats/minute) ([1]; anesthetized rats): lower
Inhibition of tachycardia ([1]; anesthetized rats): longer
Number of VPB ([1]; anesthetized rats): lower
Inhibition of VPB ([1]; anesthetized rats): longer
Anti-VPB activity at the end of the washout period [1]: still retained part of its activity
Inhibition of formation of ventricular premature beats during drug administration [1]: totally inhibited the formation of ventricular premature beats
Effect on PR segment of EKG (Class-IV activity), potency (anesthetized rats): much more potent than R-2042 and the racemate R,S-2042
Effect on QT segment of EKG (Class-III properties), potency and duration (anesthetized rats): the most potent and the longest acting
PR interval (anesthetized rats): longer
QRS interval (anesthetized rats): longer
QT interval (anesthetized rats): longer

CC[C@H](C)OC(=O)Cc1oc2ccccc2c1C(=O)c1cc(I)c(OCCN(CC)CC)c(I)c1 [R,S-2042]
Protection against adrenaline-induced tachycardia (heart rate), potency and duration [1]: the least potent and shortest acting
Anti-VPB activity relative to the other forms ([1]; racemate vs enantiomers, anesthetized rats): even less active than either the R- or the S-isomer

CCN(CC)CCOc1c(I)cc(C(=O)c2c(CC(=O)O[C@H](C)C(C)C)oc3ccccc23)cc1I [Compound R-2055, (R)-(3-Methyl)-2butyl2-[3-(3,5-diiodo-4-(2-diethylaminoethyloxy)benzoyl)]benzofuraneacetate]
Protection against adrenaline-induced tachycardia (heart rate), potency and duration [1]: longer-lasting effect than S-2055
Heart rate (beats/minute) ([1]; anesthetized rats): lower
Inhibition of tachycardia ([1]; anesthetized rats): longer
Number of VPB ([1]; anesthetized rats): lower
Inhibition of VPB ([1]; anesthetized rats): longer
Anti-VPB activity at the end of the washout period [1]: still retained part of its activity
Inhibition of formation of ventricular premature beats during drug administration [1]: totally inhibited the formation of ventricular premature beats
PR interval (anesthetized rats): shorter
QRS interval (anesthetized rats): longer
QT interval (anesthetized rats): no change

CCN(CC)CCOc1c(I)cc(C(=O)c2c(CC(=O)O[C@@H](C)C(C)C)oc3ccccc23)cc1I [Compound S-2055, (S)-(3-Methyl)-2butyl2-[3-(3,5-diiodo-4-(2-diethylaminoethyloxy)benzoyl)]benzofuraneacetate]
Time at which anti-VPB activity is lost ([1]; infusion time 0 to 120 min): ~40 min
Heart rate (beats/minute) ([1]; anesthetized rats): lower
Inhibition of tachycardia ([1]; anesthetized rats): longer
Number of VPB ([1]; anesthetized rats): lower
Inhibition of VPB ([1]; anesthetized rats): longer
Anti-VPB activity at the end of the washout period [1]: completely inactive
PR interval (anesthetized rats): shorter
QRS interval (anesthetized rats): longer
QT interval (anesthetized rats): no change
